A short description of data set [1]: Simulated gastric digestion using Nile red (NR adsorption to glass, with and without pepsin). Conditions: pepsin:CN mass ratio 1:20, pH 2.5, 2 hrs at 37° C. The format is in vitro ADME. The procedure: NR stock solution in ethanol was prepared at a concentration of 0.16 mg/ml=502.6 μM. NR was added during vortexing to the conjugate, mixture or buffer solution, at a concentration of 1.3 μM, to minimize inner filtering effect in fluorescence measurements.
Free NR in aqueous solution adsorbs to the glass walls, which may serve as a convenient way to study its release behavior from nanocapsules. To examine whether NR adsorbs to glass when in water, NR was added to 1 ml of water in a glass vial to a final concentration of 1.3 μM. The vial was left for 2 hrs, then the water was transferred to a new glass vial, and 1 ml of acetone was added to the new vial. At the same time 2 ml of water:acetone (1:1 vol/vol) solution was added to the first vial. After 1 hr both solutions were read for florescence intensity at ex:570, em:645 which is the intensity peak at water:acetone 1:1. Concentration was calculated from the intensity using a NR in water: acetone (1:1) calibration curve.
Then pepsin was added to some of the samples at a concentration of 0.15 mg/ml, in order to reach pepsin: CN mass ratio of 1:20 according to the method by Mandalari et al.^79. […] After 1 hr the acetone: water solution with NR which had adsorbed to the glass was read for fluorescence intensity (ex:570, em:645). NR fluorescence was measured with time to validate that no bleaching occurred during the procedure (data not shown).

A short description of data set [2]: Protection of VD against acidic pH treatment (pH 2.5, 2 hr, RT) with RPH-MD, RP-HPLC. Type of data set: physicochemical. Conditions: pH 2.5 for 2 hr at RT; initial VD 0.02 mg/ml, 0.5% ethanol, 0.1% w/w protein. The procedure: (§1) The protection conferred by the RPH-MD against HN deterioration with time was evaluated. Different shelf life conditions of temperature 4° C. or 23° C. and pH, neutral or acidic, were tested. Neutral pH conditions were obtained by a pH7 PBS. Acidic conditions for CLA were obtained by a pH 3 citric buffer. Acidic conditions (pH 2.5) for VD were obtained by addition of HCl.
(§2) Following the incubation of HN co-assembled samples under the above shelf life conditions, HN extraction was carried out. Then the HN concentration in the samples was quantified using reversed phase HPLC(RP-HPLC), 4.6×100 mm C18-C2 column, on an Akta basic HPLC system equipped with a 3 simultaneous wavelengths UV detector (GE Healthcare, Waukesha, Wis., USA). The volume of the injection loop was 100 μl, and the operation temperature was 24° C.
(§3) The concentration of the vitamin D was 0.02 mg/ml, a high dosage intended for simulating beverage concentrates, which are later diluted during bottling, but must be colloidally and chemically stable. […]
(§4) Vitamin D extraction and HPLC quantification was based on Kazmi et al^57. […] Operating conditions were: ambient temperature (24±1° C.); mobile phase was methanol: acetonitrile: water (49.5:49.5:1 v/v); flow rate was 0.3 ml/min; and the absorbance was measured at 254 nm and 228 nm.

Data set [3] is described as follows: Shelf life of VD at RT and 4° C. in pH 7 PBS with RPH-MD. The format is physicochemical. Conditions: after 22 days of simulated shelf life at neutral pH and 4° C.; VD 0.02 mg/ml, 0.5% ethanol, 0.1% protein. The method, then: as §1, §2, §3, §4
Data set [4] can be described thus: Particle size distribution by DLS, RPH / RPH-MD samples with and without CLA or VD, with and without homogenization. The format is physicochemical. Conditions: 0.5% ethanol. The method, then:
The conjugate samples were characterized as follows. Two mg/ml (on a protein base) solutions were prepared from the dry heated samples of RPH with and without MD and compared to the unheated control. The RPH-MD powder was dissolved in a pH 7 PBS and stirred overnight for complete hydration. The samples were filtered through 0.45 μm syringe filters (polyvinylidene fluoride, Durapore filter (Millipore, Carrigtwohill, Co. Cork, Ireland).
Additionally, the HN RPH-MD co-assembled particles were analyzed at different concentrations of the VD or CLA.
The dispersion of VD with and without RPH-MD was homogenized by Micro DeBee (Bee International Inc. South Easton Mass., USA) ultra-high pressure homogenizer: process pressure: 20-25 kpsi, Orifice diameter: 0.1 mm. The sample composition was 0.1% protein, 0.5% ethanol, VD concentration 0.02 mg/ml, buffer PBS pH 7. The sample volume subjected to homogenization was 25 ml. The influence of the homogenization process on particles size was evaluated by DLS measurements performed 2 hr after the homogenization.

Data set [5] is described as follows: CLA protection under acidic conditions (pH 3, 4° C.) with RPH-MD, RP-HPLC. Conditions: CLA 0.09 mg/ml, 0.5% ethanol, 1% protein. The format is physicochemical. The method, then: as §1, §2, §3
(§5) To extract CLA, isopropanol (0.5 ml) was added to 0.5 ml sample. […] The separation of CLA was performed with a mobile phase of acetonitrile/water/acetic acid (70/30/0.12, v/v/v) at a flow rate of 1.5 ml/min and CLA was detected at 234 nm, which was found optimal in a spectrum scan (not shown).

The nature of data set [6]: Simulated shelf life of CLA at RT in pH 7 PBS with RPH-MD. The format is physicochemical. As to conditions: after 14 days, neutral pH (pH 7 PBS), CLA 0.09 mg/ml, 0.5% ethanol, 1% protein. The procedure:
as §1, §2, §3, §5

Turning to `CCN(CC)c1ccc2nc3c4ccccc4c(=O)cc-3oc2c1` [Nile Red (NR), Nile Red], the “effect of digestion with pepsin on binding of NR (in words)” value in data set [1] is “did not change the binding of NR to casein peptides”.

Take Vitamin D3 [Vitamin D3 (VD3)]: the “residual VD” value in data set [2] is given as 50%; in data set [3], 28%. Besides, the “VD particle size fraction by DLS, without homogenization” value in data set [4] (0.1% protein, 0.02 mg/ml VD, pH 7 PBS) is on record as 100-200 nm.

conjugated linoleic acid [CLA]: the “residual percentage of CLA” value in data set [5] (after 1 day at pH 3.0 and 4° C.) is “about 20%”; in data set [5] (after 4 days at pH 3.0 and 4° C.), about 0%; in data set [6], 0%. For the same compound, the “CLA particle size by DLS” value in data set [4] (CLA in PBS pH 7 or 1% protein solutions, RPH-MD value at CLA 0.05-0.015 μg/ml) is recorded as “a few hundred”.

The values are drawn from patent publication US20120288533A1, “PROTEIN-POLYSACCHARIDE CONJUGATES AND USE FOR ENCAPSULATING NUTRACEUTICALS FOR CLEAR BEVERAGE APPLICATIONS” (Technion Research and Development Foundation Ltd., priority 2011, published 2012).
